Data on 19 molecules can be found in US20230159556A1, “NOVEL PROTEIN KINASE INHIBITORS” (TENOVA PHARMACEUTICALS INC., priority 2020, published 2023).

SMILES strings stand for the structures.

Sequence of Ba/F3_EGFR_del19/T790M/C797S cell (P00533 with tags, fused parts or gaps DEL746-750/T790M/C797S, form open): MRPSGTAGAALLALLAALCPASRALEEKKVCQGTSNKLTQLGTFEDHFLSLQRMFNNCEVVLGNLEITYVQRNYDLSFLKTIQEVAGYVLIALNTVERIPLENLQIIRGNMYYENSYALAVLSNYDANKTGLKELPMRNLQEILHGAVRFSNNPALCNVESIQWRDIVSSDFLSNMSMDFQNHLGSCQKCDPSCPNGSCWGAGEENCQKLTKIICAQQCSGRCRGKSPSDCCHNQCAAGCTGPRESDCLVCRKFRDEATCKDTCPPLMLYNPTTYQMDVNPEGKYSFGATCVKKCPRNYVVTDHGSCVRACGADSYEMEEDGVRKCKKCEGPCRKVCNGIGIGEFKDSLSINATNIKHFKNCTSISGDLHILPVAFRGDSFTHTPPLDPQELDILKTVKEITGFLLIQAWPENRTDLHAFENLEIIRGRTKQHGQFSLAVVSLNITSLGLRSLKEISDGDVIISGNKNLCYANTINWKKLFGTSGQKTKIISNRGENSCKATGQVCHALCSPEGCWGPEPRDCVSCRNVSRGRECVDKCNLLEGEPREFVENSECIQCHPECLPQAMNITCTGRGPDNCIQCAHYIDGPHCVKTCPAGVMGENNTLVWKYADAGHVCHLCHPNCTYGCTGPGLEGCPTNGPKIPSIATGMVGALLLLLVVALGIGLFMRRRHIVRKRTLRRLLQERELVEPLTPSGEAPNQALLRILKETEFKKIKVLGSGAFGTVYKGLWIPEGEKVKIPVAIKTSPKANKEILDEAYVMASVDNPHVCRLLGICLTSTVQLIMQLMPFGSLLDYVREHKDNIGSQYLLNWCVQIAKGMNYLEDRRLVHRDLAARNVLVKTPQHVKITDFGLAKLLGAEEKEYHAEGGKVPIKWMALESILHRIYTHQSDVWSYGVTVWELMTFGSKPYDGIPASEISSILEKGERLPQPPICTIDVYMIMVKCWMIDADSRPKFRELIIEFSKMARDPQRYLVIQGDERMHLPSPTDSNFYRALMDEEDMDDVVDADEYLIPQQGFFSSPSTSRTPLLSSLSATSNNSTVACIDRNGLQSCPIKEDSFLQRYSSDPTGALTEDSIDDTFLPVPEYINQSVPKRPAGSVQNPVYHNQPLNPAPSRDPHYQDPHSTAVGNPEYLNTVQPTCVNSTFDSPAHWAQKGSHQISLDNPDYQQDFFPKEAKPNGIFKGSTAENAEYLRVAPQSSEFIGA

The first test relates to Ba/F3_WT cell. The test is described as follows: BaF3 cell proliferation assay (CelltiterGlo, 72 hr). The format is cell-based. Conditions: Mus musculus, 72 hr incubation. The procedure:
(§1) The BaF3 cell proliferation assay was performed at Pharmaron (www.pharmaron.com, Beijing, China). The Ba/F3_WT and Ba/F3_Del19/T790M/C797S cell lines were maintained in 1640 medium containing 10% FBS, 1*PS and 1*Glutamax. Only cells with viability greater than 90% are used for assays. Dispense 30 μl of cell suspension at 700/well into 384 well microplate, add 30 nl compound solution into 384 cell plate by Echo, cells were incubated for 72 hr in 37° C./5% CO2 incubator, add 30 μl reagent CelltiterGlo assay kit (CTG, Promega) per well and shake plates, incubate the plate (avoiding light) at 37° C./5% CO2 for 30 min. and read the luminescence by Envision. The luminescence values were converted to % Inhibition. Calculate IC50 by fitting % inhibition values and log of compound concentrations to nonlinear regression (dose response−variable slope) with Graphpad 5.0.
(§2) Y=Bottom+(Top−Bottom)/(1+10^((Log IC50−X)*HillSlope))
(§3) X: log of inhibitor concentration; Y: % Inhibition.
A general note: ATP-based viability assays read luminescence as a measure of living cells.
Usually IC50 stands for the point on the concentration scale where inhibition reaches its midpoint. Higher therefore signals lower potency. Molecule `COc1cc(N2CCC(N(C)C)C2)c2cc1Nc1ncc(Cl)c(n1)Nc1ccc(cc1N(C)S(C)(=O)=O)OCCCCC2` (stereo not drawn) [Compound A27, N-(3^5-chloro-1^4-(3-(dimethylamino)pyrrolidin-1-yl)-1^6-methoxy-6-oxa-2,4-diaza-3(2,4)-pyrimidina-1(1,3),5(1,4)-dibenzenacycloundecaphane-5^2-yl)-N-methylmethanesulfonamide] displayed a half-maximal inhibitory concentration (IC50) of 3400 nM.

A further test addresses Ba/F3_EGFR_del19/T790M/C797S cell (Homo sapiens, UniProt P00533, T790M/C797S, cells depend on it, form not given). The test is described as above. Format: cell-based. To be noted: 72 hr incubation; read-out: IC50 (nM, Ba/F3_EGFR_del19/T790M/C797S cell proliferation). The procedure:
as §1, §2, §3
For `COc1cc(N2CCC(N(C)C)C2)c2cc1Nc1ncc(Cl)c(n1)Nc1ccc(cc1N(C)S(C)(=O)=O)OCCCCC2` (stereo not drawn) [Compound A27, N-(3^5-chloro-1^4-(3-(dimethylamino)pyrrolidin-1-yl)-1^6-methoxy-6-oxa-2,4-diaza-3(2,4)-pyrimidina-1(1,3),5(1,4)-dibenzenacycloundecaphane-5^2-yl)-N-methylmethanesulfonamide], the GI50 was found to be 330 nM.

A further test deals with T1, EGFR_L858R/T790M/C797S (Homo sapiens, UniProt P00533, C797S/L858R/T790M).
T1 construct: Reaction Biology Corporation (contract assay provider)
T1 sequence (P00533 25-1210 T790M/C797S/L858R): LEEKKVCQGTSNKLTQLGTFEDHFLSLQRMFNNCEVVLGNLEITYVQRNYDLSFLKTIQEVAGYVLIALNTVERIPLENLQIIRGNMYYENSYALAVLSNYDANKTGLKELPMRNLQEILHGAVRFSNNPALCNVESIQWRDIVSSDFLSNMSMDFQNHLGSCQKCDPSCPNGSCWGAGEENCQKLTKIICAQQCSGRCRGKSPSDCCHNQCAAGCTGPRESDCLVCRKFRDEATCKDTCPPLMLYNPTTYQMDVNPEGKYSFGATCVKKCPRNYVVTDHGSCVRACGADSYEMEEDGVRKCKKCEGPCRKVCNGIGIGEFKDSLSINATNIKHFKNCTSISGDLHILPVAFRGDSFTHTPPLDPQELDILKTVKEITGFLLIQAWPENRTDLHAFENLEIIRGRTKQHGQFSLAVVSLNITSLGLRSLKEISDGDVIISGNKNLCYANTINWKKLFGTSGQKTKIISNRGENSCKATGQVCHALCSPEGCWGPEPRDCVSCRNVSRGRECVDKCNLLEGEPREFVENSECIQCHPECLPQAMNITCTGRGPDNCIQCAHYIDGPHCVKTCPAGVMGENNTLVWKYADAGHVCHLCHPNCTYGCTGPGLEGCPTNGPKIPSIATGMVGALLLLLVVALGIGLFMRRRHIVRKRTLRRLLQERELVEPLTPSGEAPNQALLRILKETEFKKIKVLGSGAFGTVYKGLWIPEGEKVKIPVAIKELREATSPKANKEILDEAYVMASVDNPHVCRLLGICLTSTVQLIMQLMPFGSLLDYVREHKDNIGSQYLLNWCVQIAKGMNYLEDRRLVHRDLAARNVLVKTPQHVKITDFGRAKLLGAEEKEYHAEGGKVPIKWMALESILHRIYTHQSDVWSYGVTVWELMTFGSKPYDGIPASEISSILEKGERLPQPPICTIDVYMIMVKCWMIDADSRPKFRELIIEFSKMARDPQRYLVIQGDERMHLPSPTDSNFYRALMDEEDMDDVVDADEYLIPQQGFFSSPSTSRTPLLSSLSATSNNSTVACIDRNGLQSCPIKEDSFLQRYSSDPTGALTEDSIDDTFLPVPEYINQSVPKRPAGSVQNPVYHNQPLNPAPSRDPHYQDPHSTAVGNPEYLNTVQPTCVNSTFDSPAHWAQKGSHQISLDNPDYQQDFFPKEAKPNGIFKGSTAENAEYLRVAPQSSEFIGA
The test is described as follows: In vitro biochemical kinase assay (33P-ATP filter-binding, Reaction Biology).
Conditions: not given
The procedure: The biochemical kinase assay was performed at Reaction Biology Corporation (www.reactionbiology.com, Malvern, Pa.) following procedures described in the reference (Anastassiadis, T, et al, Nature Biotechnology, 2011, 29, 1039). Base Reaction buffer includes 20 mM Hepes (pH 7.5), 10 mM MgCl2, 1 mM EGTA, 0.02% Brij35, 0.02 mg/ml BSA, 0.1 mM Na3VO4, 2 mM DTT and 1% DMSO. Required cofactors are added individually to each kinase reaction. Testing compounds were dissolved in 100% DMSO to specific concentration. The serial dilution was conducted by Integra Viaflo Assist in DMSO. Compounds in 100% DMSO are into the kinase reaction mixture by Acoustic technology (Echo550; nanoliter range), incubate for 20 min at room temperature, followed by ^33P-ATP and incubation for 2 hours at room temperature. Radioactivity was then detected by filter-binding method. Kinase activity data were expressed as the percent remaining kinase activity in test samples compared to vehicle (dimethyl sulfoxide) reactions. IC50 values and curve fits were obtained using Prism (GraphPad Software).
In the case of `COc1cc(N2CCC(N3CCN(C)CC3)CC2)c2cc1Nc1ncc(Cl)c(n1)Nc1ccc(cc1S(C)(=O)=O)OCCCCCC2` [Compound A19, 3^5-chloro-1^6-methoxy-1^4-(4-(4-methylpiperazin-1-yl)piperidin-1-yl)-5^2-(methylsulfonyl)-6-oxa-2,4-diaza-3(2,4)-pyrimidina-1(1,3),5(1,4)-dibenzenacyclododecaphane], the IC50 was 180 nM.
`COc1cc(N2CCC(N(C)C)C2)c2cc1Nc1ncc(Cl)c(n1)Nc1ccc(cc1N(C)S(C)(=O)=O)OCCCCC2` (stereo not drawn) [Compound A27, N-(3^5-chloro-1^4-(3-(dimethylamino)pyrrolidin-1-yl)-1^6-methoxy-6-oxa-2,4-diaza-3(2,4)-pyrimidina-1(1,3),5(1,4)-dibenzenacycloundecaphane-5^2-yl)-N-methylmethanesulfonamide]: the IC50 was 2.3 nM.
In turn, `COc1cc(N2CCC(N3CCC(N(C)C)CC3)CC2)c2cc1Nc1ncc(Br)c(n1)Nc1ccc(cc1N(C)S(C)(=O)=O)OCCCCC2` [Compound A37, N-(3^5-bromo-1^4-(4-(dimethylamino)-[1,4′-bipiperidin]-1′-yl)-1^6-methoxy-6-oxa-2,4-diaza-3(2,4)-pyrimidina-1(1,3),5(1,4)-dibenzenacycloundecaphane-5^2-yl)-N-methylmethanesulfonamide] registered an IC50 of 0.6 nM.
The same measure, in the same setting: then `COc1cc(N2CCC3(CC2)CN(C)C3)c2cc1Nc1ncc(Br)c(n1)Nc1ccc(cc1N(C)S(C)(=O)=O)OCCCCC2` [Compound A38, N-(3^5-bromo-1^6-methoxy-1^4-(2-methyl-2,7-diazaspiro[3.5]nonan-7-yl)-6-oxa-2,4-diaza-3(2,4)-pyrimidina-1(1,3),5(1,4)-dibenzenacycloundecaphane-5^2-yl)-N-methylmethanesulfonamide], with 0.3 nM; and `CCOc1cc(N2CCN(C)CC2)c2cc1Nc1ncc(Cl)c(n1)Nc1ccc(cc1N(C)S(C)(=O)=O)OCCCCC2` [Compound A21, N-(3^5-chloro-1^6-ethoxy-1^4-(4-methylpiperazin-1-yl)-6-oxa-2,4-diaza-3(2,4)-pyrimidina-1(1,3),5(1,4)-dibenzenacycloundecaphane-5^2-yl)-N-methylmethanesulfonamide], with 40.5 nM.
`COc1cc(N2CCC(N3CCN(C)CC3)CC2)c2cc1Nc1ncc(Br)c(n1)Nc1ccc(cc1N(C)S(C)(=O)=O)CCC(=O)NCCC2` [Compound A41, N-(3^5-bromo-1^6-methoxy-1^4-(4-(4-methylpiperazin-1-yl)piperidin-1-yl)-8-oxo-2,4,9-triaza-3(2,4)-pyrimidina-1(1,3),5(1,4)-dibenzenacyclododecaphane-5^2-yl)-N-methylmethanesulfonamide] came in with a half-inhibitory concentration (IC50) of 0.4 nM.
On to `COc1cc(N2CCN(C)CC2)c2cc1Nc1ncc(Cl)c(n1)Nc1ccc(cc1S(C)(=O)=O)OCCCC2` [Compound A6, 3^5-chloro-1^6-methoxy-1^4-(4-methylpiperazin-1-yl)-5^2-(methylsulfonyl)-6-oxa-2,4-diaza-3(2,4)-pyrimidina-1(1,3),5(1,4)-dibenzenacyclodecaphane], for which the IC50 turned out to be 10000 nM.
The same measure, in the same setting: in the case of `COc1cc(N(C)CCN(C)C)c2cc1Nc1ncc(Cl)c(n1)Nc1ccc(cc1N(C)S(C)(=O)=O)OCCCCC2` [Compound A5, N-(3^5-chloro-1^4-((2-(dimethylamino)ethyl)(methyl)amino)-1^6-methoxy-6-oxa-2,4-diaza-3(2,4)-pyrimidina-1(1,3),5(1,4)-dibenzenacycloundecaphane-5^2-yl)-N-methylmethanesulfonamide] it was 27.9 nM.
Molecule `COc1cc(N2CCN(C)CC2)c2cc1Nc1ncc(Cl)c(n1)Nc1ccc(cc1N(C)S(C)(=O)=O)OCCC2` [Compound A2, N-(3^5-chloro-1^6-methoxy-1^4-(4-methylpiperazin-1-yl)-6-oxa-2,4-diaza-3(2,4)-pyrimidina-1(1,3),5(1,4)-dibenzenacyclononaphane-5^2-yl)-N-methylmethanesulfonamide] came in with a 50% inhibitory concentration (IC50) of 643 nM.
For the molecule `COc1cc(N2CCN(C)CC2)c2cc1Nc1ncc(Cl)c(n1)Nc1ccc(cc1NS(C)(=O)=O)OCCCCC2` [Compound A16, N-(3^5-chloro-1^6-methoxy-1^4-(4-methylpiperazin-1-yl)-6-oxa-2,4-diaza-3(2,4)-pyrimidina-1(1,3),5(1,4)-dibenzenacycloundecaphane-5^2-yl)methanesulfonamide], the IC50 came out at 20.3 nM.
On the same count and under the same terms, in the case of `COc1cc(N2CCC(N3CCN(C)CC3)CC2)c2cc1Nc1ncc(Br)c(n1)Nc1ccc(cc1N(C)S(C)(=O)=O)CCCNC(=O)CC2` [Compound A42] it was 3.8 nM; in that of `COc1cc(N2CCN(C)CC2)c2cc1Nc1ncc(Cl)c(n1)Nc1ccc(cc1N(C)S(=O)(=O)C(C)C)OCCCCC2` [Compound A17, N-(3^5-chloro-1^6-methoxy-1^4-(4-methylpiperazin-1-yl)-6-oxa-2,4-diaza-3(2,4)-pyrimidina-1(1,3),5(1,4)-dibenzenacycloundecaphane-5^2-yl)-N-methylpropane-2-sulfonamide], 82.2 nM; in that of `COc1cc(N2CCN(C)CC2)c2cc1Nc1ncc(Br)c(n1)Nc1ccc(cc1N(C)S(C)(=O)=O)OCCCCC2` [Compound A12, N-(3^5-bromo-1^6-methoxy-1^4-(4-methylpiperazin-1-yl)-6-oxa-2,4-diaza-3(2,4)-pyrimidina-1(1,3),5(1,4)-dibenzenacycloundecaphane-5^2-yl)-N-methylmethanesulfonamide], 0.6 nM.
For the molecule `COc1cc(N(C)CCN(C)C)c2cc1Nc1ncc(Cl)c(n1)Nc1ccc(cc1N(C)S(C)(=O)=O)OCCC2` [Compound A7, N-(3^5-chloro-1^4-((2-(dimethylamino)ethyl)(methyl)amino)-1^6-methoxy-6-oxa-2,4-diaza-3(2,4)-pyrimidina-1(1,3),5(1,4)-dibenzenacyclononaphane-5^2-yl)-N-methylmethanesulfonamide], the IC50 was determined as 3760 nM.
With `COc1cc(N2CCC(N3CCN(C)CC3)CC2)c2cc1Nc1ncc(Cl)c(n1)Nc1ccc(cc1N(C)S(C)(=O)=O)OCCCCC(=O)N2` [Compound A40, N-(3^5-chloro-1^6-methoxy-1^4-(4-(4-methylpiperazin-1-yl)piperidin-1-yl)-11-oxo-6-oxa-2,4,12-triaza-3(2,4)-pyrimidina-1(1,3),5(1,4)-dibenzenacyclododecaphane-5^2-yl)-N-methylmethanesulfonamide], the IC50 is 4.3 nM.
`COc1cc(N2CCN(C)CC2)c2cc1Nc1ncc(F)c(n1)Nc1ccc(cc1N(C)S(C)(=O)=O)OCCCCC2` [Compound A11, N-(3^5-fluoro-1^6-methoxy-1^4-(4-methylpiperazin-1-yl)-6-oxa-2,4-diaza-3(2,4)-pyrimidina-1(1,3),5(1,4)-dibenzenacycloundecaphane-5^2-yl)-N-methylmethanesulfonamide]: the IC50 is 17 nM.
As for `COc1cc(N2CCC(N(C)CCN(C)C)CC2)c2cc1Nc1ncc(Br)c(n1)Nc1ccc(cc1N(C)S(C)(=O)=O)OCCCCC2` [Compound A36, N-(3^5-bromo-1^4-(4-((2-(dimethylamino)ethyl)(methyl)amino)piperidin-1-yl)-1^6-methoxy-6-oxa-2,4-diaza-3(2,4)-pyrimidina-1(1,3),5(1,4)-dibenzenacycloundecaphane-5^2-yl)-N-methylmethanesulfonamide], the IC50 worked out at 2.9 nM.
Molecule `CC(C)Oc1cc(N2CCN(C)CC2)c2cc1Nc1ncc(Cl)c(n1)Nc1ccc(cc1N(C)S(C)(=O)=O)OCCCCC2` [Compound A22, N-(3^5-chloro-1^6-isopropoxy-1^4-(4-methylpiperazin-1-yl)-6-oxa-2,4-diaza-3(2,4)-pyrimidina-1(1,3),5(1,4)-dibenzenacycloundecaphane-5^2-yl)-N-methylmethanesulfonamide] came in with an IC50 of 503 nM.
Same read-out and setting: then `COc1cc(N2CCN(C)CC2)c2cc1Nc1ncc(Cl)c(n1)Nc1ccc(cc1C(=O)N(C)C)OCCCCCC2` [Compound A25, 3^5-chloro-1^6-methoxy-N,N-dimethyl-1^4-(4-methylpiperazin-1-yl)-6-oxa-2,4-diaza-3(2,4)-pyrimidina-1(1,3),5(1,4)-dibenzenacyclododecaphane-5^2-carboxamide], with 2510 nM.
